Measured values as given in ChEMBL document CHEMBL3885861, “Open TG-GATES”.

Species: Rattus norvegicus
Assay: Open TG-GATES - Regimen: Single
Type: toxicity, organism-based, Sprague-Dawley
Parameters: regimen Single, gender Male, age 6 weeks
Details: in vivo, po, 50 mg/kg, route gavage, dose level Low; for APTT / Bas / Eos / Fbg / Hb / Ht / Lym / MCH / MCHC / MCV / Mono / Neu / PT / Plat / RBC / Ret / WBC: tissue Blood; for KIDNEY_L / KIDNEY_R / KIDNEY_TOTAL: tissue Kidney; for LIVER: tissue Liver; for A/G / ALP / ALT / AST / BUN / CRE / Ca / Cl / DBIL / GLC / IP / K / LDH / Na / PL / RALB / TBIL / TC / TG / TP / gamma-GTP: tissue Plasma

`CN1C(=O)OC(C)(C)C1=O` [TRIMETHADIONE] was tested, and the TERMINAL_BW (3 h) was 208.1 g, the APTT (3 h) was 16.8 s and the Bas (3 h) was 0%. The Eos (3 h) was 0.8%, the Fbg (3 h) was 278 mg/dL and the Hb (3 h) was 13.4 g/dL. It also gave a Ht (3 h) of 40.2%, a Lym (3 h) of 78.4% and an MCH (3 h) of 21.3 pg. It also gave an MCHC (3 h) of 33.3%, an MCV (3 h) of 64 fL and a Mono (3 h) of 3%. It also gave a Neu (3 h) of 17.4%, a PT (3 h) of 13.8 s and a Plat (3 h) of 129 x10_4/uL. The RBC (3 h) was 628.4 x10_4/ul, the Ret (3 h) was 8.1% and the WBC (3 h) was 86.2 x10_2/uL. For the same compound, the KIDNEY_L (3 h) was 0.9 g, the KIDNEY_R (3 h) was 0.9 g and the KIDNEY_TOTAL (3 h) was 1.8 g. For the same compound, the LIVER (3 h) was 9.6 g, the A/G (3 h) was 0.9 and the ALP (3 h) was 1564.2 IU/L. It also gave an ALT (3 h) of 42.6 IU/L, an AST (3 h) of 80.4 IU/L and a BUN (3 h) of 10.4 mg/dL. It also gave a CRE (3 h) of 0.2 mg/dL, a Ca (3 h) of 10.6 mg/dL and a Cl (3 h) of 108.2 meq/L. The DBIL (3 h) was 0.006 mg/dL, the GLC (3 h) was 180.8 mg/dL and the IP (3 h) was 8.7 mg/dL. For the same compound, the K (3 h) was 4.1 meq/L, the LDH (3 h) was 133.8 IU/L and the Na (3 h) was 141.4 meq/L. For the same compound, the PL (3 h) was 146.8 mg/dL, the RALB (3 h) was 2.5 g/dL and the TBIL (3 h) was 0.064 mg/dL. The TC (3 h) was 76.4 mg/dL, the TG (3 h) was 77.8 mg/dL and the TP (3 h) was 5.4 g/dL. It also gave a gamma-GTP (3 h) of 1.6 IU/L, a TERMINAL_BW (6 h) of 207.4 g and an APTT (6 h) of 17 s. It also gave a Bas (6 h) of 0%, an Eos (6 h) of 1% and a Fbg (6 h) of 268.2 mg/dL. For the same compound, the Hb (6 h) was 13.5 g/dL, the Ht (6 h) was 40.5% and the Lym (6 h) was 78.6%. The MCH (6 h) was 21.6 pg, the MCHC (6 h) was 33.2% and the MCV (6 h) was 64.9 fL. It also gave a Mono (6 h) of 2.4%, a Neu (6 h) of 17.2% and a PT (6 h) of 13.7 s. The Plat (6 h) was 120 x10_4/uL, the RBC (6 h) was 625.4 x10_4/ul and the Ret (6 h) was 8%. It also gave a WBC (6 h) of 71.3 x10_2/uL, a KIDNEY_L (6 h) of 0.9 g and a KIDNEY_R (6 h) of 0.9 g. For the same compound, the KIDNEY_TOTAL (6 h) was 1.9 g, the LIVER (6 h) was 8.6 g and the A/G (6 h) was 0.9. For the same compound, the ALP (6 h) was 1854.2 IU/L, the ALT (6 h) was 39.8 IU/L and the AST (6 h) was 79.8 IU/L. It also gave a BUN (6 h) of 10.8 mg/dL, a CRE (6 h) of 0.2 mg/dL and a Ca (6 h) of 10.7 mg/dL. For the same compound, the Cl (6 h) was 108 meq/L, the DBIL (6 h) was 0.004 mg/dL and the GLC (6 h) was 185.6 mg/dL. It also gave an IP (6 h) of 8.9 mg/dL, a K (6 h) of 4.2 meq/L and an LDH (6 h) of 130.4 IU/L. It also gave a Na (6 h) of 140.8 meq/L, a PL (6 h) of 139.4 mg/dL and an RALB (6 h) of 2.5 g/dL. For the same compound, the TBIL (6 h) was 0.06 mg/dL, the TC (6 h) was 77.2 mg/dL and the TG (6 h) was 54.4 mg/dL. It also gave a TP (6 h) of 5.3 g/dL, a gamma-GTP (6 h) of 1.2 IU/L and a TERMINAL_BW (9 h) of 201.4 g. It also gave an APTT (9 h) of 18.8 s, a Bas (9 h) of 0% and an Eos (9 h) of 1%. For the same compound, the Fbg (9 h) was 285.2 mg/dL, the Hb (9 h) was 13.2 g/dL and the Ht (9 h) was 39.8%. It also gave a Lym (9 h) of 78.8%, an MCH (9 h) of 21.5 pg and an MCHC (9 h) of 33.2%. For the same compound, the MCV (9 h) was 64.6 fL, the Mono (9 h) was 2% and the Neu (9 h) was 17.6%. For the same compound, the PT (9 h) was 13.6 s, the Plat (9 h) was 142.2 x10_4/uL and the RBC (9 h) was 615.4 x10_4/ul. The Ret (9 h) was 8.1%, the WBC (9 h) was 80.8 x10_2/uL and the KIDNEY_L (9 h) was 0.9 g. For the same compound, the KIDNEY_R (9 h) was 0.9 g, the KIDNEY_TOTAL (9 h) was 1.8 g and the LIVER (9 h) was 7.5 g. The A/G (9 h) was 0.9, the ALP (9 h) was 1414 IU/L and the ALT (9 h) was 34.8 IU/L. The AST (9 h) was 74.6 IU/L, the BUN (9 h) was 8.4 mg/dL and the CRE (9 h) was 0.2 mg/dL. It also gave a Ca (9 h) of 10.4 mg/dL, a Cl (9 h) of 108.6 meq/L and a DBIL (9 h) of 0.002 mg/dL. The GLC (9 h) was 158.8 mg/dL, the IP (9 h) was 9.7 mg/dL and the K (9 h) was 3.9 meq/L. For the same compound, the LDH (9 h) was 99.8 IU/L, the Na (9 h) was 141.2 meq/L and the PL (9 h) was 143.2 mg/dL. The RALB (9 h) was 2.5 g/dL, the TBIL (9 h) was 0.064 mg/dL and the TC (9 h) was 84.6 mg/dL. The TG (9 h) was 33.2 mg/dL, the TP (9 h) was 5.3 g/dL and the gamma-GTP (9 h) was 1.2 IU/L. It also gave a TERMINAL_BW (24 h) of 222.7 g, an APTT (24 h) of 19.1 s and a Bas (24 h) of 0%. The Eos (24 h) was 1%, the Fbg (24 h) was 267 mg/dL and the Hb (24 h) was 13.4 g/dL. The Ht (24 h) was 40.3%, the Lym (24 h) was 76.4% and the MCH (24 h) was 21.6 pg. For the same compound, the MCHC (24 h) was 33.2%, the MCV (24 h) was 64.9 fL and the Mono (24 h) was 2.8%. It also gave a Neu (24 h) of 19.4%, a PT (24 h) of 13.4 s and a Plat (24 h) of 118.6 x10_4/uL. The RBC (24 h) was 620 x10_4/ul, the Ret (24 h) was 7.3% and the WBC (24 h) was 100.7 x10_2/uL. The KIDNEY_L (24 h) was 1 g, the KIDNEY_R (24 h) was 1 g and the KIDNEY_TOTAL (24 h) was 1.9 g. It also gave an LIVER (24 h) of 10 g, an A/G (24 h) of 0.8 and an ALP (24 h) of 2138 IU/L. For the same compound, the ALT (24 h) was 47.4 IU/L, the AST (24 h) was 77.8 IU/L and the BUN (24 h) was 14.6 mg/dL. For the same compound, the CRE (24 h) was 0.2 mg/dL, the Ca (24 h) was 10.8 mg/dL and the Cl (24 h) was 105 meq/L. For the same compound, the DBIL (24 h) was 0.008 mg/dL, the GLC (24 h) was 173.2 mg/dL and the IP (24 h) was 7.4 mg/dL. It also gave a K (24 h) of 4 meq/L, an LDH (24 h) of 112.2 IU/L and a Na (24 h) of 142.6 meq/L. The PL (24 h) was 151.4 mg/dL, the RALB (24 h) was 2.6 g/dL and the TBIL (24 h) was 0.05 mg/dL. For the same compound, the TC (24 h) was 77.6 mg/dL, the TG (24 h) was 99.4 mg/dL and the TP (24 h) was 5.7 g/dL. For the same compound, the gamma-GTP (24 h) was 1.2 IU/L.
